This passage reports EC50 results from US10344019B2 (priority 2010, dated 2019).

Read-outs that look alike come from different tables or passages of the source. Bounds are passed on as bounds.

Common to all, as to experiment: microbe, parasite or virus in culture
Holding throughout (format): cell-based

Test [1] relates to HCV 1b RLuc cells (dicistronic genotype 1b Con1 replicon, RLuc reporter). As to conditions: Hepatitis C virus, read-out: 1b (nM). The method, boiled down:
(§1)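 Renilla luciferase HCV replicon cells: dicistronic 1b Con1, 1a H77 or 2a JFH-1 replicons, or a JFH-1 chimera carrying J6 NS5A (M31 present). Compound in DMSO serial dilutions, 72 h incubation, then lysis and luciferase read. EC50 by non-linear regression.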

Test [2] has as its system HCV 2a JFH-1 Rluc cells (dicistronic genotype 2a JFH-1 replicon, RLuc reporter). As to conditions: Hepatitis C virus, genotype 2a JFH-1 replicon, read-out: 2a JFH. The procedure, abridged:
as §1

For test [3], the system named is HCV 3a RLuc cells (NS5A chimeric genotype 1b Con1 replicon with consensus genotype 3a NS5A gene). As to conditions: Hepatitis C virus. The method, boiled down: (§2)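 Replicon cells stably carrying the listed RLuc-encoding dicistronic replicons were seeded and treated with DMSO serial dilutions of compound (10 mM stocks) diluted into culture medium. After 72 h, cells were lysed and Renilla luciferase activity measured. EC50 was derived by non-linear regression.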

In test [4] the test system is HCV 1a RLuc cells (dicistronic genotype 1a H77 replicon, RLuc reporter). As to conditions: Hepatitis C virus, read-out: 1a. The method, boiled down: as §1
Test [5] has as its system HCV 4a Rluc cells (NS5A chimeric genotype 1b Con1 replicon with genotype 4a NS5A gene). As to conditions: Hepatitis C virus, read-out: 4a. The method, boiled down: as §2
[6] abbreviates: read-out: 3a, genotype 3a NS5A chimeric 1b Con1 replicon.
Setting [7] is: genotype 1a H77 replicon, RLuc reporter.
Where [8] appears, read: read-out: 3a, Table 2, genotype 3a NS5A chimeric replicon.
The mark [9] stands for this setting: 72 h, Table 2, genotype 1a H77 replicon, 72 hours.
Where [10] appears, read: read-out: 3a, genotype 3a replicon.

Regarding `COC(=O)N[C@H](C(=O)N1CCC[C@H]1c1nc2c([nH]1)-c1ccc(-c3ccc4cc(-c5cnc([C@@H]6CCCN6C(=O)[C@H](NC(=O)OC)c6ccccc6)[nH]5)ccc4c3)cc1CC2)C1CCN(C(=O)OC(C)(C)C)CC1` [Example 270], the EC50 in test [1] is 0.032 nM; in test [2] (RLuc reporter) it was 0.001 to 0.999 nM; in test [3] (setting [6]), 0.001 to 0.99 nM; in test [4] (setting [7]), 0.001 to 0.999 nM; in test [5], 0.001 to 0.99 nM.

Consider `COC(=O)N[C@H](C(=O)N1CCC[C@H]1c1ncc(-c2ccc3cc(-c4ccc(-c5cnc([C@@H]6[C@H]7CC[C@H](C7)N6C(=O)[C@H](NC(=O)OC)c6ccccc6)[nH]5)cc4)ccc3c2)[nH]1)C(C)C` [Example 48], for which the EC50 was 0.007 nM in test [1] (72 h); 1 to 44 nM in test [2] (72 h, Table 2, 72 hours); 1 to 4.99 nM in test [3] (setting [8]); 0.001 to 0.999 nM in test [4] (setting [9]); 0.001 to 0.99 nM in test [5].

Regarding `COC(=O)N[C@H](C(=O)N1CCC[C@H]1c1ncc(-c2ccc3cc(-c4ccc(-c5cnc([C@@H]6CC7(CC7)CN6C(=O)[C@H](NC(=O)OC)c6ccccc6)[nH]5)cc4)ccc3c2)[nH]1)C(C)C` [Example 235], the EC50 was 0.004 nM in test [1]; 0.001 to 0.999 nM in test [2] (RLuc reporter); 1 to 4.99 nM in test [3] (setting [6]); 0.001 to 0.999 nM in test [4] (setting [7]); 0.001 to 0.99 nM in test [5].

Consider `COC(=O)N[C@H](C(=O)N1CCC[C@H]1c1ncc(-c2ccc(-c3ccc(-c4ccc5cc(-c6cnc([C@@H]7CCCN7C(=O)[C@H](NC(=O)OC)c7ccccc7)[nH]6)ccc5c4)cc3)cc2)[nH]1)C(C)C` [Example 197], for which the EC50 was 0.01 nM in test [1]; 1 to 44 nM in test [2] (RLuc reporter); 0.001 to 0.99 nM in test [3] (setting [6]); 1 to 44 nM in test [4] (setting [7]); 0.001 to 0.99 nM in test [5].

As for `COC(=O)N[C@H](C(=O)N1[C@@H]2CC[C@@H](C2)[C@H]1c1ncc(-c2ccc(-c3ccc4c(ccc5nc([C@@H]6CCCN6C(=O)[C@H](NC(=O)OC)c6ccccc6)[nH]c54)c3)cc2F)[nH]1)C(C)C` [Example 312], the EC50 in test [1] was 0.011 nM; in test [2] it was 0.001 to 0.999 nM; in test [3] (setting [10]), 0.001 to 0.99 nM; in test [4] (genotype 1a replicon), 1 to 44 nM; in test [5] it was 0.001 to 0.99 nM.

As for `CC#Cc1cc(-c2cnc([C@@H]3[C@H]4CC[C@H](C4)N3C(=O)[C@@H](NC(=O)OC)C(C)C)[nH]2)ccc1-c1ccc(-c2cnc([C@@H]3CCCN3C(=O)[C@@H](NC(=O)OC)C(C)C)[nH]2)cc1` [Example 329], the EC50 in test [1] is 0.008 nM; in test [2], 0.001 to 0.999 nM; in test [3] (setting [10]), 1 to 4.99 nM; in test [4] (genotype 1a replicon) it was 0.001 to 0.999 nM; in test [5], 0.001 to 0.99 nM.

With `COC(=O)N[C@H](C(=O)N1CCC[C@H]1c1ncc(-c2ccc3c(c2)CCc2cc(-c4cnc([C@@H]5[C@H]6CC[C@H](C6)N5C(=O)[C@@H](NC(=O)OC)[C@@H](C)OC)[nH]4)ccc2-3)[nH]1)C(C)C` [Example 93], the EC50 was 0.023 nM in test [1] (72 h); 0.001 to 0.999 nM in test [2] (72 h, Table 2, 72 hours); 0.001 to 0.99 nM in test [3] (setting [8]); 0.001 to 0.999 nM in test [4] (setting [9]); 0.001 to 0.99 nM in test [5].

As to `COC(=O)N[C@H](C(=O)N1CCC[C@H]1c1ncc(-c2ccc3c(c2)COc2c-3ccc(-c3cnc([C@@H]4CCCN4C(=O)[C@@H](NC(=O)OC)C(C)C)[nH]3)c2F)[nH]1)C(C)C` [Example 308], the EC50 was 0.008 nM in test [1]; 0.001 to 0.999 nM in test [2]; 0.001 to 0.99 nM in test [3] (setting [10]); 0.001 to 0.999 nM in test [4] (genotype 1a replicon); 0.001 to 0.99 nM in test [5].

With `COC(=O)N[C@H](C(=O)N1CCC[C@H]1c1nc2c3ccccc3c3cc(-c4ccc(-c5cnc([C@@H]6CCCN6C(=O)[C@@H](NC(=O)OC)[C@@H](C)OC)[nH]5)cc4)ccc3c2[nH]1)C(C)C` [Example 301], the EC50 was 0.019 nM in test [1]; 1 to 44 nM in test [2]; 1 to 4.99 nM in test [3] (setting [10]); 1 to 44 nM in test [4] (genotype 1a replicon); 0.001 to 0.99 nM in test [5].

Turning to `COC(=O)N[C@H](C(=O)N1CCC[C@H]1c1ncc(-c2ccc3cc(-c4ccc(-c5cnc([C@@H]6CCCN6C(=O)[C@H](NC(=O)CN(C)C)c6ccccc6)[nH]5)cc4)ccc3c2)[nH]1)C(C)C` [Example 237], the EC50 was 0.023 nM in test [1]; 0.001 to 0.999 nM in test [2] (RLuc reporter); 0.001 to 0.99 nM in test [3] (setting [6]); 0.001 to 0.999 nM in test [4] (setting [7]); 0.001 to 0.99 nM in test [5].

Regarding `COC(=O)N[C@H](C(=O)N1CCC[C@H]1c1nc2c([nH]1)-c1ccc(-c3ccc4cc(-c5cnc([C@@H]6CCCN6C(=O)[C@H](NC(=O)OC)c6ccccc6)[nH]5)ccc4c3)cc1CC2)C1CCNCC1` [Example 284], the EC50 in test [1] was 4.62 nM; in test [2] (RLuc reporter) it was 1 to 44 nM; in test [3] (setting [6]), over 5 nM; in test [4] (setting [7]), 1 to 44 nM; in test [5] it was 0.001 to 0.99 nM.

Take `COC(=O)NC(C(=O)N1CCC[C@H]1c1ncc(-c2ccc(-c3ccc4c(ccc5nc([C@@H]6[C@H]7CC[C@H](C7)N6C(=O)[C@@H](NC(=O)OC)C6CCOCC6)[nH]c54)c3)cc2)[nH]1)C(C)C` (stereo partly shown) [Example 67]: the EC50 is 0.044 nM in test [1] (72 h); 0.001 to 0.999 nM in test [2] (72 h, Table 2, 72 hours); 1 to 4.99 nM in test [3] (setting [8]); 0.001 to 0.999 nM in test [4] (setting [9]); 0.001 to 0.99 nM in test [5].

On to `COC(=O)N[C@H](C(=O)N1CCC[C@H]1c1ncc(-c2ccc3c(c2)C(F)(F)c2cc(-c4ccc5nc([C@@H]6CCCN6C(=O)[C@H](NC(=O)OC)c6ccccc6)[nH]c5c4)ccc2-3)[nH]1)C(C)C` [Example 258], for which the EC50 in test [1] is 0.005 nM; in test [2] (RLuc reporter) it was 0.001 to 0.999 nM; in test [3] (setting [6]), 0.001 to 0.99 nM; in test [4] (setting [7]) it was 0.001 to 0.999 nM; in test [5] it was 0.001 to 0.99 nM.

Turning to `COC(=O)N[C@H](C(=O)N1CCC[C@H]1c1ncc(-c2ccc3c(c2)COc2c-3ccc3cc(-c4cnc([C@@H]5CCCN5C(=O)OCc5ccccc5)[nH]4)ccc23)[nH]1)C1CCOCC1` [Example 6], the EC50 in test [1] (72 h) was 0.051 nM; in test [2] (72 h, Table 1, 72 hours), 1 to 44 nM; in test [3] (read-out: 3a, Table 1, genotype 3a NS5A chimeric replicon) it was over 5 nM; in test [4] (72 h, Table 1, genotype 1a H77 replicon, 72 hours), 1 to 44 nM; in test [5], 0.001 to 0.99 nM.

Take `COC(=O)N[C@H](C(=O)N1CCC[C@H]1c1ncc(-c2ccc3cc(-c4ccc(-c5cnc([C@@H]6CC7(CN6C(=O)[C@H](NC(=O)OC)c6ccccc6)OCCO7)[nH]5)cc4)ccc3c2)[nH]1)C(C)C` [Example 45]: the EC50 is 0.014 nM in test [1] (72 h); 0.001 to 0.999 nM in test [2] (72 h, Table 2, 72 hours); 1 to 4.99 nM in test [3] (setting [8]); 0.001 to 0.999 nM in test [4] (setting [9]); 0.001 to 0.99 nM in test [5].

For the molecule `COC(=O)N[C@H](C(=O)N1[C@@H]2CC[C@@H](C2)[C@H]1c1ncc(-c2ccc(-c3ccc4c(ccc5nc([C@@H]6C[C@H]7C[C@H]7N6C(=O)[C@@H](NC(=O)OC)C6CCOCC6)[nH]c54)c3)cc2)[nH]1)C(C)C` [Example 378], the EC50 in test [1] was 0.036 nM; in test [2], 0.001 to 0.999 nM; in test [3] (setting [10]) it was 0.001 to 0.99 nM; in test [4] (genotype 1a replicon), 0.001 to 0.999 nM; in test [5], 0.001 to 0.99 nM.

As for `COC(=O)N[C@H](C(=O)N1CCC[C@H]1c1ncc(-c2ccc3cc(-c4ccc(-c5cnc([C@@H]6[C@@H]7CC[C@@H](C7)N6C(=O)[C@@H](NC(=O)OC)C(C)C)[nH]5)cc4)ccc3c2)[nH]1)C(C)C` [Example 52], the EC50 is 0.009 nM in test [1] (72 h); 1 to 44 nM in test [2] (72 h, Table 2, 72 hours); 1 to 4.99 nM in test [3] (setting [8]); 0.001 to 0.999 nM in test [4] (setting [9]); 0.001 to 0.99 nM in test [5].

In the case of `CC#Cc1cc(-c2cnc([C@@H]3CCCN3C(=O)[C@@H](NC(=O)OC)C(C)C)[nH]2)ccc1-c1ccc(-c2cnc([C@@H]3CCCN3C(=O)[C@@H](NC(=O)OC)C(C)C)[nH]2)cc1` [Example 342], the EC50 was 0.01 nM in test [1]; 0.001 to 0.999 nM in test [2]; 0.001 to 0.99 nM in test [3] (setting [10]); 0.001 to 0.999 nM in test [4] (genotype 1a replicon); 0.001 to 0.99 nM in test [5].

Consider `COC(=O)N[C@H](C(=O)N1CCC[C@H]1c1ncc(-c2ccc3cc(-c4ccc(-c5cnc([C@@H]6CCCN6C(=O)[C@@H](NC(=O)OC)C6CCSCC6)[nH]5)cc4)ccc3c2)[nH]1)C(C)C` [Example 278], for which the EC50 in test [1] is 0.013 nM; in test [2] (RLuc reporter) it was 0.001 to 0.999 nM; in test [3] (setting [6]) it was 1 to 4.99 nM; in test [4] (setting [7]), 0.001 to 0.999 nM; in test [5], 0.001 to 0.99 nM.

Consider `COC(=O)N[C@H](C(=O)N1CCC[C@H]1c1ncc(-c2ccc3c(c2)C(F)(F)c2cc(-c4ccc5nc([C@@H]6CCCN6C(=O)[C@H](NC(=O)OC)c6ccccc6)[nH]c5c4)ccc2-3)[nH]1)C1CCOCC1` [Example 259], for which the EC50 in test [1] was 0.014 nM; in test [2] (RLuc reporter), 0.001 to 0.999 nM; in test [3] (setting [6]), 0.001 to 0.99 nM; in test [4] (setting [7]) it was 0.001 to 0.999 nM; in test [5], 0.001 to 0.99 nM.
